In patent US9771360B2, “Cyano-substituted imidazo[1,2-A]pyridinecarboxamides and their use” (Bayer Pharma Aktiengesellschaft, priority 2014, dated 2017):

These compounds were tested against T1, recombinant guanylate cyclase reporter cell line (Rattus norvegicus, UniProt P19686+P20595) (assay: Effect on a recombinant guanylate cyclase reporter cell line (B-2)). Conditions: MEC = minimum effective concentration; in some cases mean values from individual determinations.
T1 construct: expressed in transfected cells
T1 sequence (P20595 1-619): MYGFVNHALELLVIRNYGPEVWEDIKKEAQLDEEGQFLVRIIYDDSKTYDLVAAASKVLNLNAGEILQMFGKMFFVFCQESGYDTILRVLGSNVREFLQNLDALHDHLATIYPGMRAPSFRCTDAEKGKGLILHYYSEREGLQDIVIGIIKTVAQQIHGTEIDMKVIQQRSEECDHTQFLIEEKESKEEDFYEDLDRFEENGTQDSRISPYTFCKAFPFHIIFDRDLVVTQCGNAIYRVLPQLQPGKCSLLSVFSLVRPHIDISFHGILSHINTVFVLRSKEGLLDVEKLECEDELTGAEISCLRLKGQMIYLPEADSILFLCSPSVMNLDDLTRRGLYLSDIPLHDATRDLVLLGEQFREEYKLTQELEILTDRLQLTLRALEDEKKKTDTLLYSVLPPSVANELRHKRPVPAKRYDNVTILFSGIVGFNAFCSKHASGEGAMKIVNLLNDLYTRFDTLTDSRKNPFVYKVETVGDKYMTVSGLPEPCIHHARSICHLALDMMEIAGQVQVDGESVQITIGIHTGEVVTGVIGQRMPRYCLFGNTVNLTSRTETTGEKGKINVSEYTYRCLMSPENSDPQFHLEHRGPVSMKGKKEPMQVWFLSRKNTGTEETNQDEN
T1 sequence (P19686 1-690): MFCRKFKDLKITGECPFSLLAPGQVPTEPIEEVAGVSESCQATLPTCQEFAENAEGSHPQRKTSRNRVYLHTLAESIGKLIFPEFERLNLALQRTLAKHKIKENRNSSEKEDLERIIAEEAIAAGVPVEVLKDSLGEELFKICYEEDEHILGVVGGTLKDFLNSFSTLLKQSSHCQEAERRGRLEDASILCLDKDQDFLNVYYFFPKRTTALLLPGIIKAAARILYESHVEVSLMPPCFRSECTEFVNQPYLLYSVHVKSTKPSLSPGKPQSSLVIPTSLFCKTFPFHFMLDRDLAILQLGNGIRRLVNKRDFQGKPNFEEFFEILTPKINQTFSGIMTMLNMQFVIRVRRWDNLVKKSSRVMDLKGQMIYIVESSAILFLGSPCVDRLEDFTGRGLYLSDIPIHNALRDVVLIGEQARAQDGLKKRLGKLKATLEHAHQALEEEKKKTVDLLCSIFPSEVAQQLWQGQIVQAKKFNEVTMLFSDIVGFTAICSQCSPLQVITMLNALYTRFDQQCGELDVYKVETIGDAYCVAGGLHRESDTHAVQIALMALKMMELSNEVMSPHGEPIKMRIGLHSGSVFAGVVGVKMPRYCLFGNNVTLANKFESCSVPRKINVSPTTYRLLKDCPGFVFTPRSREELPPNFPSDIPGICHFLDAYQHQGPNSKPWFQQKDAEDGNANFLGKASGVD
Type: cell-based
Description: B-2. Effect on a Recombinant Guanylate Cyclase Reporter Cell Line
The cellular activity of the compounds according to the invention is determined using a recombinant guanylate cyclase reporter cell line, as described in F. Wunder et al., Anal. Biochem. 339, 104-112 (2005).
Representative MEC values (MEC=minimum effective concentration) for the compounds of the invention are shown in the table below (in some cases as mean values from individual determinations): […]
Compound `Cc1cc(OCc2c(F)cccc2F)c2nc(C)c(C(=O)NC(C)C#N)n2c1` (single isomer, unassigned) [Example 16, ent-N-(1-Cyanoethyl)-8-[(2,6-difluorobenzyl)oxy]-2,6-dimethylimidazo[1,2-a]pyridine-3-carboxamide] has an MEC of 0.3 µM. `Cc1cc(OCc2c(F)cccc2F)c2nc(C)c(C(=O)NCC(N)CC#N)n2c1` (single isomer, unassigned) [Example 42, ent-N-(2-Amino-3-cyanopropyl)-8-[(2,6-difluorobenzyl)oxy]-2,6-dimethylimidazo[1,2-a]pyridine-3-carboxamide] showed an MEC of 1 µM. For `Cc1cc(OCc2c(F)cccc2F)c2nc(C)c(C(=O)NCC(N)CC#N)n2c1` (single isomer, unassigned) [Example 43, ent-N-(2-Amino-3-cyanopropyl)-8-[(2,6-difluorobenzyl)oxy]-2,6-dimethylimidazo[1,2-a]pyridine-3-carboxamide], the MEC was 1 µM. `Cc1cc(OCc2c(F)cccc2F)c2nc(C)c(C(=O)NCC(N)CCCC#N)n2c1` (single isomer, unassigned) [Example 46, ent-N-(2-Amino-5-cyanopentyl)-8-[(2,6-difluorobenzyl)oxy]-2,6-dimethylimidazo[1,2-a]pyridine-3-carboxamide] gave an MEC of 3 µM. With `Cc1cc(OCc2c(F)cccc2F)c2nc(C)c(C(=O)NCC(N)CCCC#N)n2c1` (single isomer, unassigned) [Example 47, ent-N-(2-Amino-5-cyanopentyl)-8-[(2,6-difluorobenzyl)oxy]-2,6-dimethylimidazo[1,2-a]pyridine-3-carboxamide] the MEC was 1 µM. Work on `Cc1cc(OCc2c(F)cccc2F)c2nc(C)c(C(=O)NCC#N)n2c1` [Example 2, N-(cyanomethyl)-8-[(2,6-difluorobenzyl)oxy]-2,6-dimethylimidazo[1,2-a]pyridine-3-carboxamide] yielded an MEC of 0.3 µM. `Cc1cc(OCc2c(F)cccc2F)c2nc(C)c(C(=O)NC(C)(C)C#N)n2c1` [Example 3, N-(2-cyanopropan-2-yl)-8-[(2,6-difluorobenzyl)oxy]-2,6-dimethylimidazo[1,2-a]pyridine-3-carboxamide] was tested, and the MEC was 0.1 µM. In the case of `Cc1cc(OCc2c(F)cccc2F)c2nc(C)c(C(=O)NC3(C#N)CC3)n2c1` [Example 4, N-(1-cyanocyclopropyl)-8-[(2,6-difluorobenzyl)oxy]-2,6-dimethylimidazo[1,2-a]pyridine-3-carboxamide], the MEC is reported as 0.3 µM. `Cc1cc(OCc2c(F)cccc2F)c2nc(C)c(C(=O)NC3(C#N)CCC3)n2c1` [Example 5, N-(1-cyanocyclobutyl)-8-[(2,6-difluorobenzyl)oxy]-2,6-dimethylimidazo[1,2-a]pyridine-3-carboxamide] was tested, and the MEC was 0.03 µM. In the case of `Cc1cc(OCc2c(F)cccc2F)c2nc(C)c(C(=O)NCCC#N)n2c1` [Example 9, N-(2-cyanoethyl)-8-[(2,6-difluorobenzyl)oxy]-2,6-dimethylimidazo[1,2-a]pyridine-3-carboxamide], the MEC is reported as 0.3 µM. Work on `Cc1cc(OCc2c(F)cccc2F)c2nc(C)c(C(=O)NCCCCCC#N)n2c1` [Example 10, N-(5-cyanopentyl)-8-[(2,6-difluorobenzyl)oxy]-2,6-dimethylimidazo[1,2-a]pyridine-3-carboxamide] yielded an MEC of 0.1 µM. `Cc1cc(OCc2c(F)cccc2F)c2nc(C)c(C(=O)NC3CCCCC3C#N)n2c1` (stereo not drawn) [Example 11, N-(2-cyanocyclohexyl)-8-[(2,6-difluorobenzyl)oxy]-2,6-dimethylimidazo[1,2-a]pyridine-3-carboxamide] gave an MEC of 0.3 µM. `Cc1cc(OCc2c(F)cccc2F)c2nc(C)c(C(=O)NCC3CCC(C#N)CC3)n2c1` (stereo not drawn) [Example 12, N-[(4-cyanocyclohexyl)methyl]-8-[(2,6-difluorobenzyl)oxy]-2,6-dimethylimidazo[1,2-a]pyridine-3-carboxamide] gave an MEC of 0.1 µM. For `Cc1cc(OC(C)c2c(F)cccc2F)c2nc(C)c(C(=O)NC(C#N)c3ccc(Cl)cc3)n2c1` (stereo not drawn) [Example 26, N-[(4-chlorophenyl)(cyano)methyl]-8-[1-(2,6-difluorophenyl)ethoxy]-2,6-dimethylimidazo[1,2-a]pyridine-3-carboxamide], the MEC was 10 µM. In the case of `CCOc1ccc(NC(=O)c2c(C)nc3c(OCc4c(F)cccc4F)cc(C)cn23)cc1C#N` [Example 32, N-(3-Cyano-4-ethoxyphenyl)-8-[(2,6-difluorobenzyl)oxy]-2,6-dimethylimidazo[1,2-a]pyridine-3-carboxamide], the MEC is reported as 1 µM. In the case of `Cc1cc(OCc2c(F)cccc2F)c2nc(C)c(C(=O)Nc3[nH]ncc3C#N)n2c1` [Example 33, N-(4-cyano-1H-pyrazol-5-yl)-8-[(2,6-difluorobenzyl)oxy]-2,6-dimethylimidazo[1,2-a]pyridine-3-carboxamide], the MEC is reported as 1 µM. Work on `Cc1cc(OCc2c(F)cccc2F)c2nc(C)c(C(=O)Nc3ccccc3CC#N)n2c1` [Example 35, N-[2-(cyanomethyl)phenyl]-8-[(2,6-difluorobenzyl)oxy]-2,6-dimethylimidazo[1,2-a]pyridine-3-carboxamide] yielded an MEC of 0.3 µM. Compound `Cc1cc(OCc2c(F)cccc2F)c2nc(C)c(C(=O)Nc3ccc(CC#N)cc3)n2c1` [Example 36, N-[4-(cyanomethyl)phenyl]-8-[(2,6-difluorobenzyl)oxy]-2,6-dimethylimidazo[1,2-a]pyridine-3-carboxamide] has an MEC of 1 µM. With `COc1ccc(NC(=O)c2c(C)nc3c(OCc4c(F)cccc4F)cc(C)cn23)cc1C#N` [Example 37, N-(3-cyano-4-methoxyphenyl)-8-[(2,6-difluorobenzyl)oxy]-2,6-dimethylimidazo[1,2-a]pyridine-3-carboxamide] the MEC was 0.3 µM. Compound `Cc1cc(OCc2c(F)cccc2F)c2nc(C)c(C(=O)NC3CNCC(C#N)C3)n2c1` (stereo not drawn) [Example 38, N-(5-Cyanopiperidin-3-yl)-8-[(2,6-difluorobenzyl)oxy]-2,6-dimethylimidazo[1,2-a]pyridine-3-carboxamide] has an MEC of 0.3 µM. For `Cc1cc(OCc2c(F)ccc(C3CC3)c2F)c2nc(C)c(C(=O)NCC3CCC(C#N)CC3)n2c1` (stereo not drawn) [Example 40, N-[(4-Cyanocyclohexyl)methyl]-8-[(3-cyclopropyl-2,6-difluorobenzyl)oxy]-2,6-dimethylimidazo[1,2-a]pyridine-3-carboxamide], the MEC was 3 µM.
